In US12281304B2, “Compositions and methods for treating and preventing muscular disorders and dystrophies, steroid side effects, and inflammation” (Children's National Medical Center, priority 2018, dated 2025):

System: miRNAs in diaphragm muscle of mdx mice
Assay: TaqMan low-density array (TLDA) miRNA profiling of diaphragm, discovery set (prophylactic mdx trial)
Assay type: in vivo, mouse
Conditions: mdx diaphragm, vs untreated mdx; Pred 5 mg/kg, Vam 15 mg/kg
Excerpt: Archival muscle samples (diaphragm) from two separate preclinical studies were obtained, with each trial showing a significant benefit from both prednisolone and vamorolone drug treatments (23). Prednisolone was used because it is the active form of prednisone, the current DMD standard of care. The first, “discovery set” of diaphragm muscles was from a prophylactic trial design where 2-week old (postnatal day 15) mdx or wild type control mice received oral dosing for 6 weeks with vehicle (cherry syrup), prednisolone (5 mg/kg), or vamorolone (15 mg/kg) as previously reported (23). The second, “validation set” of diaphragm muscles was from an extended trial in older mice where mdx or wild type mice were subjected to treadmill running to unmask mild phenotypes. Mice in this validation set were treated with either vehicle, prednisolone (5 mg/kg) or vamorolone (45 mg/kg) for four months beginning at two months of age (23). At the endpoint of each trial, diaphragm muscles were harvested and frozen in liquid nitrogen-cooled isopentane.
We extracted total RNA from 5 diaphragm muscles per treatment group in the discovery set of samples from 8-week old mice. RNA was extracted using a modified TRIzol protocol with isopropanol precipitation at −20° C. overnight. This RNA was reverse transcribed to cDNA using a High Capacity cDNA Reverse Transcription Kit with RNase Inhibitor (ThermoFisher; Carlsbad, Calif.), with miRNA-specific Megaplex RT Primers, Rodent Pools Set version 3.0 (ThermoFisher; Carlsbad, Calif.). Levels of each of the miRNAs were profiled in the discovery set using TAQMAN Array Rodent MiRNA A+B Cards Set v3.0 (ThermoFisher; Carlsbad, Calif.).
In the discovery set experiments, levels of each miRNA were quantified in TaqMan low-density arrays using ThermoFisher Cloud software with the Relative Quantification Application (ThermoFisher; Carlsbad, Calif.) tool. Data was analyzed by ANOVA with post-hoc comparison of each group to the mdx vehicle-treated group. […] A P-value of P≤0.05 was set as the significance threshold, without adjustment for multiple comparisons. To reduce false-positive discovery in this setting, an evidence-based approach was used to identify efficacy associated miRNAs where 1) results from the multiple groups were cross-referenced, and 2) all candidate miRNAs identified in this discovery set were then assayed in a separate validation set of mice. For the validation set experiments, levels of each individual miRNA were assayed in samples from a second, independent preclinical trial in adult mdx mice. Data from individual TaqMan Assays was quantified using QuantStudio Real-Time PCR version 1.3 software (Applied Biosystems; Foster City, Calif.). The levels of all miRNAs were normalized to the geometric mean of multiple control genes (60, 70). Comparison of groups was made by ANOVA with Holm-Sidak post-hoc test comparing each group to mdx vehicle.
To visualize behavior of miRNAs within individual mice for each group, heat map images were generated. Heat maps were generated using Rq values of TLDA array data exported from the Relative Quantification Application of the ThermoFisher Cloud software (ThermoFisher; Carlsbad, Calif.) tool. Heat maps of miRNA expression were produced using Hierarchical Clustering Explorer Version 3.5 (at www.cs.umd.edu/hcil/multi-cluster/) produced by the Human Computer Interaction Laboratory (University of Maryland; College Park, Md.).
To examine miRNA expression TaqMan low density qPCR array cards were used to profile approximately 750 miRNAs within diaphragm muscle from a discovery set of mice. Samples for this experiment came from a trial that utilized a prophylactic approach (23). Briefly, mdx mice undergo a stage of peak severity characterized by widespread inflammation and necrosis from approximately 3-8 weeks of age, followed by a recovery stage where mice show milder phenotypes (25). […]

C[C@]12C=CC(=O)C=C1CC[C@@H]1[C@@H]2[C@@H](O)C[C@@]2(C)[C@H]1CC[C@]2(O)C(=O)CO [prednisolone]
Rq mmu-miR-214-002306: 0.898
Rq mmu-miR-215-001200: 0.792
Rq mmu-miR-218-000521: 0.615
Rq mmu-miR-221-000524: 0.687
Rq mmu-miR-222-002276: 0.666
Rq mmu-miR-223-002295: 0.804
Rq mmu-miR-296-5p-000527: 1.035
Rq mmu-miR-301a-000528: 0.687
Rq mmu-miR-301b-002600: 0.862
Rq mmu-miR-322-001076: 0.67
Rq mmu-miR-324-3p-002509: 0.713
Rq mmu-miR-324-5p-000539: 0.859
Rq mmu-miR-328-000543: 0.888
Rq mmu-miR-335-3p-002185: 1.354
Rq mmu-miR-335-5p-000546: 0.756
Rq mmu-miR-337-3p-002532: 0.853
Rq mmu-miR-338-3p-002252: 0.469
Rq mmu-miR-339-5p-002257: 0.652
Rq mmu-miR-340-3p-002259: 0.581
Rq mmu-miR-340-5p-002258: 0.602
Rq mmu-miR-342-3p-002260: 0.407
Rq mmu-miR-342-5p-002527: 0.529
Rq mmu-miR-345-5p-002528: 0.713
Rq mmu-miR-350-002530: 0.796
Rq mmu-miR-362-3p-002616: 0.936
Rq mmu-miR-362-5p-002614: 1.241
Rq mmu-miR-369-3p-000557: 1.192
Rq mmu-miR-369-5p-001021: 1.211
Rq mmu-miR-370-002275: 1.975
Rq mmu-miR-376a#-002482: 1.351
Rq mmu-miR-376a-001069: 1.484
Rq mmu-miR-376b#-002451: 1.084
Rq mmu-miR-376b-002452: 1.602
Rq mmu-miR-376c-002450: 0.966
Rq mmu-miR-379-001138: 1.085
Rq mmu-miR-380-5p-002601: 1.287
Rq mmu-miR-381-000571: 1.359
Rq mmu-miR-382-000572: 1.017
Rq mmu-miR-383-001767: 0.551
Rq mmu-miR-384-5p-002602: 0.618
Rq mmu-miR-409-3p-002332: 1.906
Rq mmu-miR-410-001274: 1.676
Rq mmu-miR-411-001610: 1.171
Rq mmu-miR-431-001979: 1.819
Rq mmu-miR-433-001028: 2.288
Rq mmu-miR-434-5p-002581: 1.271
Rq mmu-miR-450a-5p-002303: 1.051
Rq mmu-miR-455-002455: 0.612
Rq mmu-miR-467F-002886: 1.346
Rq mmu-miR-467a-002587: 0.751
Rq mmu-miR-467c-002517: 0.992
Rq mmu-miR-483#-002560: 1.367
Rq mmu-miR-486-001278: 0.917
Rq mmu-miR-487b-001285: 1.43
Rq mmu-miR-489-001302: 0.792
Rq mmu-miR-491-001630: 0.776
Rq mmu-miR-493-002519: 2.641
Rq mmu-miR-494-002365: 1.025
Rq mmu-miR-495-001663: 1.448
Rq mmu-miR-497-001346: 0.482
Rq mmu-miR-500-002606: 0.935
Rq mmu-miR-501-3p-001651: 0.97
Rq mmu-miR-503-002456: 0.923
Rq mmu-miR-511-002549: 0.48
Rq mmu-miR-532-3p-002355: 1.067
Rq mmu-miR-532-5p-001518: 1.087
Rq mmu-miR-540-3p-001310: 0.908
Rq mmu-miR-541-002562: 1.165
Rq mmu-miR-542-3p-001284: 1.123
Rq mmu-miR-542-5p-002563: 0.96
Rq mmu-miR-543-001298: 2.644
Rq mmu-miR-543-002376: 1.81
Rq mmu-miR-544-002550: 1.001
Rq mmu-miR-574-3p-002349: 0.667
Rq mmu-miR-652-002352: 0.626
Rq mmu-miR-665-002607: 1.683
Rq mmu-miR-669a-001683: 0.678
Rq mmu-miR-673-3p-002449: 1.562
Rq mmu-miR-673-001954: 2.031
Rq mmu-miR-674#-001956: 0.857
Rq mmu-miR-674-002021: 0.846
Rq mmu-miR-675-3p-001941: 1.258
Rq mmu-miR-682-001666: 0.702
Rq mmu-miR-690-001677: 0.744
Rq mmu-miR-706-001641: 0.75
Rq mmu-miR-708-002341: 0.636
Rq mmu-miR-720-001629: 0.905
Rq mmu-miR-802-002029: 0.245
Rq mmu-miR-805-002045: 1.066
Rq mmu-miR-1274a-121150_mat: 1.138
Rq mmu-miR-1941-3p-121130_mat: 2.166
Rq mmu-miR-1943-121174_mat: 0.831
Rq mmu-miR-1944-121189_mat: 0.877
Rq mmu-miR-2146-241082_mat: 1.113
Rq mmu-miR-30d-000420: 0.701
Rq rno-miR-1-002064: 0.911
Rq rno-miR-7#-001338: 0.751
Rq rno-miR-7a#-002062: 0.863
Rq rno-miR-20b-001326: 0.491
Rq rno-miR-29c#-001818: 0.826
Rq rno-miR-204#-002076: 0.729
Rq rno-miR-224-000599: 1.144
Rq rno-miR-345-3p-002061: 0.859
Rq rno-miR-351-002063: 1.366
Rq rno-miR-379#-002081: 1.563
Rq rno-miR-381-001322: 1.107
Rq rno-miR-489-001353: 0.626
Rq rno-miR-664-001323: 0.638
